Literature values, collected in patent US4127539A, “Novel hexacosapeptides, intermediates therefore and pharmaceutical compositions and methods employing said hexacosapeptides” (priority 1977, dated 1978).

Columns and labels:
[1] = tested on: partially purified brain opiate receptor sites; conditions: literature, background section
[2] = literature, background section
rat = conditions: injected directly into the brain of the rat

In the case of “H-Tyr-Gly-Gly-Phe-Met-OH [methionine enkephalin]”, the “binding to partially purified brain opiate receptor sites” value [1] is given as “binds stereo-specifically”, the “activity in bioassays for opiate activity” value [2] is given as “very active” and the analgesic effect (rat) is given as “only weak analgesic agent of short duration”.
